Laboratory results: US20220024921A1, “1,3,4-OXADIAZOLONE COMPOUND AND PHARMACEUTICAL” (NIPPON SHINYAKU CO., LTD., priority 2018, published 2022)
Counter-ions that a name gives are not always drawn.

What was measured:
[1] = biological target: T1, PIM1 serine/threonine kinase (Homo sapiens, UniProt P11309); test: PIM1 serine/threonine kinase inhibitory effect; format: biochemical; conditions: PIM1 serine/threonine kinase activity; ATP 40 μM; 30° C., 30 minutes
T1 construct: purchased Carna Bioscience, Inc
In short: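 Compounds were tested in duplicate from 0.01 to 10000 nM final against PIM1 kinase (0.15 μg/ml). The reaction ran for 30 minutes at 30° C with 40 μM ATP and 0.5 μM biotin-tagged substrate at pH 7.0. Phosphorylation was read by time-resolved FRET (OD665/OD620) after 1 h; IC50 by non-linear fit.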

[2] = biological target: PIM1 transgenic cells (Ba/F3) (Homo sapiens, UniProt P11309); test: Proliferation inhibitory effect on PIM1 transgenic cells; format: cell-based, mouse; conditions: proliferation inhibition, 72 hours, Cell Counting Kit-8, read-out: PIM1 IC50
In short: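 Mouse Ba/F3 pro-B cells were retrovirally transduced with human PIM1 so that their proliferation depends on PIM1. Cells were treated with compound at 1–10000 nM final for 72 h, then read by CCK-8 (OD450−OD650). Inhibition was set against DMSO (0%) and no-cell blank (100%), and IC50 was obtained by two-parameter logistic regression.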

[3] = system: graft-versus-host disease model CB6F1 mice; test: Lymphocyte proliferation inhibitory effect using graft-versus-host disease model animals (splenomegaly formation); format: in vivo; conditions: Mus musculus, 240 h, oral, twice a day for 10 days, GVHD model CB6F1 mice, read-out: Inhibition rate (%) (splenomegaly formation); for inhibition in vivo at 6 mg/kg: single dose 6 mg/kg; for inhibition in vivo at 20 mg/kg: single dose 20 mg/kg; for inhibition in vivo at 10 mg/kg: single dose 10 mg/kg; for inhibition in vivo at 30 mg/kg: single dose 30 mg/kg
Method: BALB/c mice (8-week-aged female) were euthanized, and then the spleen was removed from each mouse. Then, hemolysis treatment was performed to isolate spleen cells. The obtained spleen cells were intravenously transplanted into CB6F1 mice (8-week-aged female), which are C57BL/6 and BALB/c F1 mice, to prepare a model, and splenomegaly was induced. For transplantation, spleen cells for 1.2 BALB/c mouse were used for one CB6F1 mouse.
Each test substance shown in Table 64 was weighed and dissolved in a 0.5% methyl cellulose solution, thereby preparing test substance solutions of 0.3 to 10 mg/mL.
A vehicle (0.5% methyl cellulose solution) or test substance was orally administered to each CB6F1 mouse after transplantation at a dose of 3 to 50 mg/kg in terms of body weight twice a day for 10 days from the day after transplantation. The mouse was euthanized on the 11th day from the start of administration, then the spleen was removed therefrom, and the wet weight of the spleen was measured. For each of CB6F1 mice that had not undergone transplantation as a control group, the wet weight of the spleen was also measured.
The splenomegaly formation inhibition rate when the spleen weights of the mice to which the vehicle was administered after transplantation and the mice on which transplantation had not been performed were 0% and 100%, respectively, was calculated.

T1 sequence (P11309 whole entry): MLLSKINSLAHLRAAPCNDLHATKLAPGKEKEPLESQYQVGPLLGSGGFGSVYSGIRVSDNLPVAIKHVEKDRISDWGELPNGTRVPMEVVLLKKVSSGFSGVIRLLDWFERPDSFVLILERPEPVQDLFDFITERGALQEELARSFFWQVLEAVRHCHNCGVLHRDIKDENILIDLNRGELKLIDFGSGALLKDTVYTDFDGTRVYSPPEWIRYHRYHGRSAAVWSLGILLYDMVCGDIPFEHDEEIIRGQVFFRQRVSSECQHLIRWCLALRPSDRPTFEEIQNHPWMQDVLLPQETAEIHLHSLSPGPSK
PIM1 transgenic cells (Ba/F3), sequence (P11309 whole entry, stated change not applied): as the sequence (P11309 whole entry) above

Row | IC50 [1] [nM] | GI50 [2] [nM] | SMILES | inhibition in vivo at 6 mg/kg [3] [%] | inhibition in vivo at 20 mg/kg [3] [%] | inhibition in vivo at 10 mg/kg [3] [%] | inhibition in vivo at 50 mg/kg ([3]; single dose 50 mg/kg) [%] | inhibition in vivo at 30 mg/kg [3] [%]
1 | 5.1 | 19 | CC[C@@H]1CNCC[C@@H]1[C@H](C)Nc1cc(-c2n[nH]c(=O)o2)cc(F)c1C [Example 229, 5-[3-({(1S)-1-[(3S,4S)-3-ethylpiperidin-4-yl]ethyl}amino)-5-fluoro-4-methylphenyl]-1,3,4-oxadiazol-2(3H)-one] | 14.4 | 35.1 |  |  | 
2 | 0.8 | 26 | C[C@H](Nc1cc(-c2n[nH]c(=O)o2)cc(F)c1Cl)[C@H]1CC[C@H](N)CC1 [Example 177, 5-[3-({(1S)-1-[(1r,4S)-4-aminocyclohexyl]ethyl}amino)-4-chloro-5-fluorophenyl]-1,3,4-oxadiazol-2(3H)-one hydrochloride] |  | 39.2 | 23.7 |  | 
3 | 4 | 61 | C[C@H](Nc1cc(-c2n[nH]c(=O)o2)ccc1C(F)(F)F)[C@H]1C[C@@H](N)C1 [Example 145, 5-[3-({(1S)-1-[(1s,3R)-3-aminocyclobutyl]ethyl}amino)-4-(trifluoromethyl)phenyl]-1,3,4-oxadiazol-2(3H)-one hydrochloride] |  | 35.6 | 27.3 |  | 
4 | 1.2 | 55 | C[C@H](Nc1cc(-c2n[nH]c(=O)o2)cc(Br)c1Cl)C1CCNCC1 [Example 97, 5-(3-bromo-4-chloro-5-{[(1S)-1-(piperidin-4-yl)ethyl]amino}phenyl)-1,3,4-oxadiazol-2(3H)-one dihydrochloride] |  |  |  | 33 | 
5 | 2.2 | 27 | C[C@H](Nc1cc(-c2n[nH]c(=O)o2)ccc1C(F)(F)F)[C@@H]1C[C@H](N)C1(C)C [Example 137, 5-[3-({(1S)-1-[(1R,3S)-3-amino-2,2-dimethylcyclobutyl]ethyl}amino)-4-(trifluoromethyl)phenyl]-1,3,4-oxadiazol-2(3H)-one hydrochloride] |  |  |  |  | 47.5
6 | 1.5 | 19 | C[C@H](Nc1cc(-c2n[nH]c(=O)o2)ccc1C(F)(F)F)[C@H]1CC[C@H](N)CC1 [Example 106, 5-[3-({(1S)-1-[(1r,4S)-4-aminocyclohexyl]ethyl}amino)-4-(trifluoromethyl)phenyl]-1,3,4-oxadiazol-2(3H)-one hydrochloride] |  |  |  |  | 39.8
7 | 2.9 | 40 | C[C@H](Nc1cc(-c2n[nH]c(=O)o2)ccc1C(F)(F)F)C1(F)CCNCC1 [Example 125, 5-[3-{[(1S)-1-(4-fluoropiperidin-4-yl)ethyl]amino}-4-(trifluoromethyl)phenyl]-1,3,4-oxadiazol-2(3H)-one hydrochloride] |  |  |  |  | 45.1
8 | 1.3 | 15 | C[C@@H]1CNCC[C@@H]1[C@H](C)Nc1cc(-c2n[nH]c(=O)o2)cc(F)c1C(F)(F)F [Example 210, 5-[3-fluoro-5-({(1S)-1-[(3S,4S)-3-methylpiperidin-4-yl]ethyl}amino)-4-(trifluoromethyl)phenyl]-1,3,4-oxadiazol-2(3H)-one] |  | 48.4 | 44.9 |  | 
9 | 1.8 | 34 | C[C@@H]1CNCC[C@@H]1[C@H](C)Nc1cc(-c2n[nH]c(=O)o2)cc(F)c1OC(F)F [Example 214, 5-[4-(difluoromethoxy)-3-fluoro-5-({(1S)-1-[(3S,4S)-3-methylpiperidin-4-yl]ethyl}amino)phenyl]-1,3,4-oxadiazol-2(3H)-one] |  | 25.3 | 23.3 |  | 
10 | 1.8 | 17 | C[C@H](Nc1cc(-c2n[nH]c(=O)o2)cc(F)c1C(F)(F)F)[C@H]1CC[C@H](N)CC1 [Example 151, 5-[3-({(1S)-1-[(1r,4S)-4-aminocyclohexyl]ethyl}amino)-5-fluoro-4-(trifluoromethyl)phenyl]-1,3,4-oxadiazol-2(3H)-one hydrochloride] |  | 40.3 | 33.8 |  | 
11 | 7.7 | 24 | Cc1c(F)cc(-c2n[nH]c(=O)o2)cc1N[C@@H](C)[C@H]1CCNC[C@H]1F [Example 227, 5-[3-fluoro-5-({(1S)-1-[(3S,4R)-3-fluoropiperidin-4-yl]ethyl}amino)-4-methylphenyl]-1,3,4-oxadiazol-2(3H)-one] | 16.7 | 32.7 |  |  | 
12 | 12 | 260 | C[C@H]1CN([C@@H](C)C2CCNCC2)c2cc(-c3n[nH]c(=O)o3)cc(F)c2O1 [Example 251, 5-{(2S)-8-fluoro-2-methyl-4-[(1S)-1-(piperidin-4-yl)ethyl]-3,4-dihydro-2H-1,4-benzoxazin-6-yl}-1,3,4-oxadiazol-2(3H)-one] |  |  |  |  | 
13 | 8.5 | 130 | CN[C@H]1C[C@@H]([C@H](C)Nc2cc(-c3n[nH]c(=O)o3)cc(F)c2OC(F)(F)F)C1 [Example 208, 5-[3-fluoro-5-({(1S)-1-[(1s,3R)-3-(methylamino)cyclobutyl]ethyl}amino)-4-(trifluoromethoxy)phenyl]-1,3,4-oxadiazol-2(3H)-one] |  |  |  |  | 
14 | 1.8 | 17 | C[C@H](Nc1cc(-c2n[nH]c(=O)o2)cc(F)c1OC(F)(F)F)[C@H]1CC[C@H](N)CC1 [Example 170, 5-[3-({(1S)-1-[(1r,4S)-4-aminocyclohexyl]ethyl}amino)-5-fluoro-4-(trifluoromethoxy)phenyl]-1,3,4-oxadiazol-2(3H)-one hydrochloride] |  |  |  |  | 
15 | 33 | 4500 | NCc1ccc(-c2cc(-c3n[nH]c(=O)o3)ccc2C(F)(F)F)cc1 [Example 20, 5-[4′-(aminomethyl)-6-(trifluoromethyl)[1,1′-biphenyl]-3-yl]-1,3,4-oxadiazol-2(3H)-one hydrochloride] |  |  |  |  | 
16 | 8.4 | 300 | C[C@H](Nc1nc(-c2n[nH]c(=O)o2)ccc1C(F)(F)F)C1CCNCC1 [Example 114, 5-[6-{[(1S)-1-(piperidin-4-yl)ethyl]amino}-5-(trifluoromethyl)pyridin-2-yl]-1,3,4-oxadiazol-2(3H)-one hydrochloride hydrochloride] |  |  |  |  | 
17 | 14 | 160 | C[C@H](Nc1cc(-c2n[nH]c(=O)o2)ccc1C(F)(F)F)[C@H]1[C@@H]2CC[C@H]1CNC2 [Example 156, 5-[3-({(1S)-1-[(1R,5S,8s)-3-azabicyclo[3.2.1]octan-8-yl]ethyl}amino)-4-(trifluoromethyl)phenyl]-1,3,4-oxadiazol-2(3H)-one hydrochloride] |  |  |  |  | 
18 | 31 | 1300 | N[C@H]1CC[C@H](CCNc2cc(-c3n[nH]c(=O)o3)ccc2C(F)(F)F)CC1 [Example 117, 5-[3-({2-[(1r,4r)-4-aminocyclohexyl]ethyl}amino)-4-(trifluoromethyl)phenyl]-1,3,4-oxadiazol-2(3H)-one hydrochloride] |  |  |  |  | 
19 | 4.2 | 110 | C[C@@H]([C@H]1CC[C@H](N)CC1)N1CCOc2c(F)cc(-c3n[nH]c(=O)o3)cc21 [Example 249, 5-(4-{(1S)-1-[(1r,4S)-4-aminocyclohexyl]ethyl}-8-fluoro-3,4-dihydro-2H-1,4-benzoxazin-6-yl)-1,3,4-oxadiazol-2(3H)-one] |  |  |  |  | 
20 | 12 | 550 | C[C@H](Nc1cc(Cl)cc(-c2n[nH]c(=O)o2)c1)C1CCNCC1 [Example 105, 5-(3-chloro-5-{[(1S)-1-(piperidin-4-yl)ethyl]amino}phenyl)-1,3,4-oxadiazol-2(3H)-one dihydrochloride] |  |  |  |  | 
21 | 38 | 3500 | N[C@H]1CO[C@H](CCc2cc(-c3n[nH]c(=O)o3)ccc2C(F)(F)F)OC1 [Example 28, 5-[3-{2-[(2r,5r)-5-amino-1,3-dioxan-2-yl]ethyl}-4-(trifluoromethyl)phenyl]-1,3,4-oxadiazol-2(3H)-one hydrochloride] |  |  |  |  | 
